Data reported in patent US11142504B2, “Substituted heterocycles as c-MYC targeting agents” (Northwestern University, priority 2016, dated 2021).

Key:
[1] = system: MV411 cells; assay: AML xenograft model, combination with Ara-C; format: in vivo, CB17 SCID mice; conditions: AML mice xenograft
Experimental: CB17 SCID mice were inoculated with MV411 cells at the density of 5×10^6 suspended in PBS and matrigel (1:1). The mice were randomized based on tumor volume into 6 different groups after the tumor reached ˜200 to 500 mm^3. The mice were treated either with vehicle, NU031, NU975 alone or in combination with cytarabine (Ara-C). […] (See FIG. 17).

[2] = target: MYC/Max binding to DNA (Homo sapiens, UniProt P01106); assay: Electrophoretic mobility shift assay (EMSA)
Experimental: We also tested our best hit compound Min9 (NUCC-0176234) and newly synthesized analogs for effects of these compounds on MYC/Max binding to DNA in electrophoretic mobility shift assays (EMSAs). (See FIG. 5a and FIG. 5b). We expected the active compounds to impair MYC/Max binding to DNA. Several structural analogs of Min9 were tested over multiple doses for inhibiting MYC-DNA binding and we observed a dose-dependent inhibition. (See FIG. 5c).

[3] = system: cMYC wild-type (WT) and cMYC KO line; assay: Cell viability assay, cMYC wild-type line vs cMYC KO line; format: cell-based
Experimental: Min9 (NUCC-0176234) was also tested in a cell viability assay against a cMYC wild-type (WT) and a cMYC KO line.

[4] = system: PC12 cells; assay: Cell viability of PC12 cells; format: cell-based; conditions: for IC50: Rattus norvegicus, PC-12, Cell viability of PC12 cells
Experimental: (§1) PC3 prostate cancer cell line with high Myc level and PC12 pheochromocytoma tumor cell line with non functional Max protein, which is not dependent on Myc-Max complex, were phased from ATCC. Cells were plated in 96 well plate at 1000 cells per well, and Myc inhibitor 361 at various concentrations was added to the cells next day. After 3 days of treatment, fresh medium with 361 were added again, and cell viability was measured by MTS assay at day 5 after the treatment. (See FIG. 11).

[5] = In vitro metabolism in mouse S9 fraction; format: in vitro ADME
Experimental: (§2) In vitro metabolism of NUCC-176242 and NUCC-176248 were tested using mouse liver microsomes and a mouse S9 fraction. (See FIG. 9).

[6] = system: MycCap cells; assay: Cell viability of MycCap cells; format: cell-based; conditions: Mus musculus, Myc-CaP
[7] = system: MYC WT and KO fibroblasts; assay: Growth inhibition of wild type and MYC knockout rat fibroblasts; format: cell-based
Description: We tested the top 13 active compounds in the first screen assay. […] More than half of the tested compounds show better growth inhibitory effect on MYC WT compared to MYC KO cells.

[8] = Stability in mouse liver microsomes; format: in vitro ADME; conditions: % remaining of compound after 60 min treatment with mouse liver microsomes
Experimental: as §2

[9] = system: MYC transcriptional activity; assay: MYC E-Box luciferase reporter assay; format: cell-based; conditions: MycCap Ebox-luc, 4 hours of treatment
Experimental: To test the compounds, we evaluated the in silico hits in a MYC E-Box luciferase reporter assay to measure the effects of these compounds (referred to as Min-1 to Min-32) on MYC transcriptional activity. […] (See FIG. 2).
MycCap cells stably expressing luciferase with CMV promoter (MycCap-luc) or c-Myc E-box-luciferase reporter (MycCap Ebox-luc) were plated at 10000 cells per well in 96 well white-wall plate. Serial dilutions of 361 were treated next day. At 4 hours of treatment, luminescence signal was determined immediately after adding 150 μg/ml of Luciferin to the well. (See FIG. 12).

[10] = system: PC3 prostate cancer cell line; assay: Proliferation assay (MTS), PC3 cells; format: cell-based; conditions: MTS at day 5
Experimental: as §1

[11] = system: MycCap cells; assay: MycCap FVB allograft model; format: in vivo, FVB mice
Experimental: FVB mice were inoculated with 1×10^6 of MycCap cells in 100 ul of matrigel subcutaneously on both flanks of the mice. When tumor size reached average size of 150 mm^3, mice were randomized based on tumor volume to 2 groups. Mice were administered with 50 mg/kg of 361 or vehicle (Veh) twice daily intra-peritoneally for two days. The treatment was suspended for 10 day, and initiated the treatment with a lower dose […] daily for another 9 days. Tumor size was measured twice a week during the experiment. (See FIG. 15).
MycCap FVB allograft model was treated with 361 (50 mg/kg) for two days, following by two days of anti-PD-1 antibody (100 ug/day), and kept this 4-day treatment cycle for 4 cycles. (See FIG. 16).

MYC/Max binding to DNA, sequence (P01106 whole entry, species assumed): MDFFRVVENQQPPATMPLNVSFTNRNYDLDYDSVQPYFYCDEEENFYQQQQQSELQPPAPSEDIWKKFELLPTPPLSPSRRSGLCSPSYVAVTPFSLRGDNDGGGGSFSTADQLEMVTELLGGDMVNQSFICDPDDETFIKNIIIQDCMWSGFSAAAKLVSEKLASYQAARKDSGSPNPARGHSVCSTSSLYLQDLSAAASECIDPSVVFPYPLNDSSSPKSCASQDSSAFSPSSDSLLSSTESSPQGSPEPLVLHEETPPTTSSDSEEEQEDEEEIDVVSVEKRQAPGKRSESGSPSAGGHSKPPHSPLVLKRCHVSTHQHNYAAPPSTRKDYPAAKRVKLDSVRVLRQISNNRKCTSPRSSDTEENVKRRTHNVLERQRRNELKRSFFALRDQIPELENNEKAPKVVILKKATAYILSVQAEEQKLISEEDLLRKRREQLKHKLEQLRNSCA

Question: Which “anti-tumor effect in combination with Ara-C” value (shortened to “anti-tumor effect”) [1] does the source give for `CCCCOc1ccc(-c2cc(C(F)(F)F)n[nH]2)c(O)c1-c1cc(C(F)(F)F)cc(C(F)(F)F)c1` [NU031] here?
Answer: significant difference compared to control group

Question: For `Cn1nc(C(F)(F)F)cc1-c1ccc(OCc2ccc(Cl)cc2)c(-c2ccc(Cl)c(C(F)(F)F)c2)c1O` [NU975], which “anti-tumor effect” value [1] is on record?
Answer: significant difference compared to control group

Question: For `CCc1ccc(Oc2c[nH]nc2-c2ccc(OCc3cnn(-c4ccccc4)c3)cc2O)cc1` [NUCC-0176234], which “inhibition of MYC/Max binding to DNA (in words)” value [2] is on record?
Answer: prevent c-MYC/DNA binding

Question: And the “cell viability, WT line vs KO cells” value [3]?
Answer: reduces cell viability much more in the WT line than the KO cells

Question: For `CCc1ccc(Oc2c(-c3ccc(OCc4ccc(Cl)cc4)cc3O)n[nH]c2C(F)(F)F)cc1` [NUCC-0176242], which IC50 [4] is on record?
Answer: 9.8 µM

Question: And the “in vitro metabolism by mouse S9 fraction” value [5]?
Answer: significantly metabolism by the mouse S9 fraction

Question: What about the IC50 [6] of the same compound?
Answer: 3.1 µM

Question: Which IC50 [4] does the source give for `CCc1ccc(Oc2c(-c3ccc(OCc4ccc(Cl)cc4)cc3O)nn(C)c2C(F)(F)F)cc1` [NUCC-0176248] here?
Answer: 7.8 µM

Question: What about the “selectivity of growth inhibition, MYC WT vs MYC KO cells” value [7] of the same compound?
Answer: high specificity

Question: And the IC50 [6]?
Answer: 3.4 µM

Question: With `CCc1ccc(Oc2c(-c3ccc(OCc4ccncc4)cc3O)n[nH]c2C(F)(F)F)cc1` [NUCC-0176250] as the compound, how does the “selectivity of growth inhibition, MYC WT vs MYC KO cells” value [7] read?
Answer: great selectivity

Question: Which IC50 [2] does the source give for `Oc1cc(OCc2ccc(Cl)cc2)ccc1-c1n[nH]c(C(F)(F)F)c1Oc1ccccc1Cl` [NUCC-0196342] here?
Answer: 64.4 µM

Question: And the “MLM % at 60 min” value [8]?
Answer: 87.4%

Question: What about the IC50 [6] of the same compound?
Answer: 3.5 µM

Question: For `Cn1nc(C(F)(F)F)cc1-c1ccc(OCc2ccc(Cl)cc2)c(-c2cc(C(F)(F)F)cc(C(F)(F)F)c2)c1O` [NUCC-0196361], which IC50 [4] is on record?
Answer: 30.7 µM

Question: And the IC50 [2]?
Answer: 63 µM

Question: What about the “MLM % at 60 min” value [8] of the same compound?
Answer: 72.9%

Question: What about the IC50 [6] of the same compound?
Answer: 3.8 µM

Question: With `Oc1c(-c2cc(C(F)(F)F)[nH]n2)ccc(OCc2ccc(Cl)cc2)c1-c1ccccc1Cl` [NUCC-0196363] as the compound, how does the IC50 [2] read?
Answer: 61.8 µM

Question: What about the “MLM % at 60 min” value [8] of the same compound?
Answer: 88.6%

Question: What about the IC50 [6] of the same compound?
Answer: 4 µM

Question: What does the source list for `COc1cccc(-c2c(-c3ccc(OCc4ccc(Cl)cc4)cc3O)n[nH]c2C(F)(F)F)c1` [NUCC-0198309]?
Answer: IC50 [2]: 61.2 µM; MLM % at 60 min [8]: 74%; IC50 [6]: 4 µM

Question: For `Cn1nc(C(F)(F)F)cc1-c1ccc(OCc2ccc(Cl)cc2)c(-c2ccc(Cl)c(C(F)(F)F)c2)c1O` [NUCC-0200975], which “anti-tumor effect” value ([1]; listed as 975) is on record?
Answer: significant synergic anti-tumor effect with Ara-C

Question: And the IC50 [4]?
Answer: 38.4 µM

Question: What about the IC50 [6] of the same compound?
Answer: 6.1 µM

Question: For `Cn1nc(C(F)(F)F)cc1-c1ccc(OCc2ccc(Cl)cc2)c(-c2cc(C(F)(F)F)cc(C(F)(F)F)c2)c1O` [compound 361], which “proliferation of Myc independent cell line PC12” value ([4]; MTS at day 5) is on record?
Answer: not

Question: And the c-Myc transcription activity [9]?
Answer: inhibits c-Myc transcription activity as an early event before affecting cell viability

Question: What about the “proliferation of Myc dependent cell line PC3” value [10] of the same compound?
Answer: specifically inhibits proliferation

Question: And the “tumor progression, combination with immunotherapy” value ([11]; 361 50 mg/kg with anti-PD-1 antibody, 4-day cycles)?
Answer: significantly blocks tumor progression

Question: What about the tumor volume ([11]; mouse prostate cancer allograft, intra-peritoneally) of the same compound?
Answer: reduces tumor volume
